Measured values reported in patent US10100056B2, “SHIP1 modulators and methods related thereto” (Aquinox Pharmaceuticals (Canada) Inc., priority 2013, dated 2018).

Key:
[1] = test system: Akt phosphorylation in Molt-4 (PTEN-/SHIP1+) cells; experiment: Akt phosphorylation in lymphocytes (Western blot, IGF-1 stimulated); assay type: cell-based; design: key: +: inhibits Akt phosphorylation at 30 μM; −: no effect on Akt phosphorylation at 30 μM; settings: 30 μM; Molt-4 (SHIP1+) cells, IGF-1 100 ng/mL
Procedure: Molt-4 (PTEN-/SHIP1+) cells are starved in serum free RPMI for overnight. In a 15 mL conical tube, 2-3 million serum starved cells (1 million cells per mL) are treated with various concentrations of test compound ([…]) for 30 min at 37° C. followed by stimulation with 100 ng/mL of IGF-1 for 1 hour at 37° C. After stimulation, cells are washed once with ice-cold DPBS and lysed with Lysis Buffer (20 mM Tris-HCl, pH 7.5, 140 mM NaCl, 1% NP-40, Complete Mini Protease Inhibitor Cocktail, 10 mM NaF, 1 mM Na3VO4, 1 mM β-glycerolphosphate) on ice for 30 min with vortexing every 10 min. Samples are then centrifuged at 13,000 rpm for 20 min, and supernatants are collected as total cell lysate samples. Protein concentration is determined using bicinchonic acid assay, and about 15 μg of total protein from each sample is loaded and separated on a 4-12% Tris-Glycine gel. After SDS-PAGE, proteins are transferred from the gel to a nitrocellulose membrane. The membrane is blocked in 5% BSA in PBS containing 0.1% Tween-20 (PBS-T) for 1 hour at room temperature before probing with primary antibodies for overnight at 4° C. The following antibodies are used: mouse anti-SHIP1 (1:500 dilution; Santa Cruz, Calif., USA), rabbit anti-phospho-Akt (Ser473) (1:1000 dilution; Cell Signaling Technologies, MA, USA), rabbit anti-Akt (1:1000; Cell Signaling Technologies, MA, USA), and rabbit anti-actin (1:2000; Cell Signaling Technologies, MA, USA). The membrane is then incubated with goat anti-rabbit or anti-mouse secondary antibodies (1:3000) for 1 hour at room temperature. Target proteins on the membrane are detected with ECL solution and exposed on a film.

[2] = target: T1, His-hSHIP1 enzyme (Homo sapiens, UniProt Q92835); experiment: His-hSHIP1 activity (phosphatase assay, IP4 substrate, Biomol Green); assay type: biochemical; design: key to Scoring, Approach 2 (Initial velocity Ratio): +++: higher than reference or reference - 15%; ++: reference - 16% to reference - 30%; +: reference - 31% or lower; −: inhibitor; settings: second approach: ratio of initial velocities IP4 25/250 μM compared with reference compound; values without asterisk
T1 construct: His
T1 sequence (Q92835 1-1189): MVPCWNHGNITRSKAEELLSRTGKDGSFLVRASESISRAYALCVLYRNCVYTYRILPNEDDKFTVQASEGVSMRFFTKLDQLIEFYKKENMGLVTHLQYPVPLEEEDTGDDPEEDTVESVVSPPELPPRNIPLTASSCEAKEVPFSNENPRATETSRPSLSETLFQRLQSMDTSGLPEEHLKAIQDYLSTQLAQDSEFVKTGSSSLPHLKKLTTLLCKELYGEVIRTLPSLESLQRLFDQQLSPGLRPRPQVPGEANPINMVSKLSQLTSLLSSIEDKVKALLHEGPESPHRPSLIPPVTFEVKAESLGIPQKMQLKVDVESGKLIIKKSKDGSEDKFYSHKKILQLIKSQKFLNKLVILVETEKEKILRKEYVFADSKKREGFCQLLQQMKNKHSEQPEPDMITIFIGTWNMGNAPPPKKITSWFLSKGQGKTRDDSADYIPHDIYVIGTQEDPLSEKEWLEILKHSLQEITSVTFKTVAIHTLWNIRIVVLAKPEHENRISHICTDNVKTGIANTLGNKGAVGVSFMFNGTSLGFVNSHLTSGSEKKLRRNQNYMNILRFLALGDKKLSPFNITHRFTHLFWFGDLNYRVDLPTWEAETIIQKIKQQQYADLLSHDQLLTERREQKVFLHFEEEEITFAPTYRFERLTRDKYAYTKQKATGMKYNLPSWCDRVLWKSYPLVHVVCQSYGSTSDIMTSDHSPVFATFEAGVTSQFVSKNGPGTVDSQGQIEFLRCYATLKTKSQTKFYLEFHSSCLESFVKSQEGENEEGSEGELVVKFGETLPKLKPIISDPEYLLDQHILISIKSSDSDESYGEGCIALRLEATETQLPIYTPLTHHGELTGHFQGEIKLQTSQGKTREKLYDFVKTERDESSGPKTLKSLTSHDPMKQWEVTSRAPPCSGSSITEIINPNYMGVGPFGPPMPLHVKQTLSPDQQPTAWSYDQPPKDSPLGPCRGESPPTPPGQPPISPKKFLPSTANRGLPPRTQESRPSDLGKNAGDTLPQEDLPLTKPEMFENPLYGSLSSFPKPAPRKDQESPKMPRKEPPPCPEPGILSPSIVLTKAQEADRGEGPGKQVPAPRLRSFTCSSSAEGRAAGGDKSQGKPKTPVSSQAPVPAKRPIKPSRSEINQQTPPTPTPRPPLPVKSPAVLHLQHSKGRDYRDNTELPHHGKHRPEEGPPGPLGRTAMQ
Procedure: Test compounds are dissolved in 95% ethanol to form stock solutions. Before screening, the stock solutions are diluted with Phosphatase Assay Buffer (20 mM Tris-HCL, 10 mM MgCl2 pH 7.5, 0.02% Tween 20) to form working assay solutions that contain 10% ethanol. The assay is carried out on 96-well microtiter plates using a modified procedure of that reported by Ong et al., Blood 110, 1942-1949, 2007 and Yang et al., Org Lett 7, 1073-1076, 2005, both of which references are incorporated herein by reference in their entirety.
Data were generated by one of two variant methods. Test compounds are screened by one of two approaches described as follows. In the first approach, each reaction contains 5 μL of His-hSHIP1 enzyme (5-20 ng), 10 μL of the substrate, 1,3,4,5-inositol tetrakisphosphate (IP4; 50 μM final), 5 μL of Phosphatase Assay Buffer, and 5 µL of test compound at various concentrations in 10% ethanol (0-300 μM final). Control blanks are also prepared by replacing His-hSHIP1 enzyme, IP4, or test compounds with Phosphatase Assay Buffer. After adding the reaction components in a 96-well microtiter plate on ice, the reaction is mixed by briefly shaking the plate vigorously. The reaction is then incubated at 37° C. for 15 min with gentle shaking followed by addition of 100 μL of Biomol Green Reagent (BIOMOL, PA, USA) to terminate the reaction. The free phosphate released from IP4 by His-hSHIP1 binds to the Biomol Green Reagent, which turns the dye to green color. After incubating the mixture for 20 min at room temperature for color development, the absorbance is read with SpectraMax Plus 96-well plate reader (Molecular Devices, Sunnyvale, Calif., USA) at a wavelength of 650 nm.
In the second approach, a master mix is prepared that contains 50 μL of His-hSHIP1 enzyme (0.4-1.6 ng/μL final), 25 μL of the substrate, IP4 (25 or 250 μM final), and 50 μL of test compound in 3.3% ethanol (100 μL final). Control blanks are also prepared by replacing His-hSHIP1 enzyme, IP4, or test compounds with Phosphate Assay Buffer. […] Each reaction component is preincubated at 37° C. for 30 min before adding to a 96-well microtiter plate. The master mix is then incubated at 37° C. At time 0, 20, and 30 min, 25 μL of the master mix is removed and transferred to a new 96-well microtiter plate, to which 100 μL of Biomol Green Reagent is added to stop the reaction. After incubating the mixture for 20 min at room temperature for color development, the absorbance is read with SpectraMax Plus 96-well plate reader at a wavelength of 650 nm. Phosphate released is plotted against time to calculate the initial velocities (i.e., slope of the graph) at each IP4 concentration. The initial velocities are baseline corrected and the ratio of initial velocities (IP425/IP4250) is calculated and used to rate the test compounds.

Structure (SMILES) | Scoring, Approach 2 (Initial velocity Ratio) [2] | Molt-4 (SHIP+): inhibition of Akt phosphorylation [1]
CC1(C)CCC2=C1CC[C@H]([C@@]1(C)CC[C@H](O)C[C@@H]1CO)[C@H]2CNC(=N)N.Cl [Cpd. No. 1, 1-(((4R,5S)-5-((1R,2S,4S)-4-hydroxy-2-(hydroxymethyl)-1-methylcyclohexyl)-1,1-dimethyl-2,3,4,5,6,7-hexahydro-1H-inden-4-yl)methyl)guanidine hydrochloride] | ++ | +
C=C1CC[C@H]2[C@H](O)[C@@H]([C@@]3(C)CC[C@H](O)C[C@@H]3CCN3CCOCC3)CC[C@]12C [Cpd. No. 46, (3aR,4R,5R,7aS)-5-((1S,2S,4S)-4-hydroxy-1-methyl-2-(2-morpholinoethyl)cyclohexyl)-7a-methyl-1-methyleneoctahydro-1H-inden-4-ol] | ++ | +
C=C1CC[C@H]2[C@H](CCNC(=O)c3ccc4c(c3)OCO4)[C@@H]([C@@]3(C)CC[C@H](O)C[C@@H]3O)CC[C@]12C [Cpd. No. 93, N-(2-((3aS,4S,5S,7aS)-5-((1R,2S,4S)-2,4-dihydroxy-1-methylcyclohexyl)-7a-methyl-1-methyleneoctahydro-1H-inden-4-yl)ethyl)benzo[d][1,3]dioxole-5-carboxamide] | ++ | 

Further lines, with some results ahead:

Scoring, Approach 2 (Initial velocity Ratio) [2] | Structure (SMILES) | Molt-4 (SHIP+): inhibition of Akt phosphorylation [1]
+ | C=C1CC[C@H]2[C@H](CNCc3ccc(OC)cc3)[C@@H]([C@@]3(C)CC[C@H](O)C[C@@H]3CO)CC[C@]12C [Cpd. No. 18, (1S,3S,4R)-3-(hydroxymethyl)-4-((3aS,4R,5S,7aS)-4-((4-methoxybenzylamino)methyl)-7a-methyl-1-methyleneoctahydro-1H-inden-5-yl)-4-methylcyclohexanol] | +
+ | C=C1CC[C@H]2[C@H](Cn3cncn3)[C@@H]([C@@]3(C)CC[C@H](O)C[C@@H]3CO)CC[C@]12C [Cpd. No. 27, (1S,3S,4R)-4-((3aS,4R,5S,7aS)-4-((1H-1,2,4-triazol-1-yl)methyl)-7a-methyl-1-methyleneoctahydro-1H-inden-5-yl)-3-(hydroxymethyl)-4-methylcyclohexanol] | −
